Assay results taken from PubChem BioAssay AID330 (DTP/NCI, 2004).
Values joined by “and” are separate entries in the source; they are usually repeats but may differ in a detail not shown here. Identical values can stand only once. Toxic doses and inconclusive results are not listed.

Test system: P388 leukemia ip, CD2F1 mice, survival T/C
Test: NCI In Vivo Anticancer Drug Screen. Data for tumor model P388 Leukemia (intraperitoneal) in CD2F1 (CDF1) mice
Details: endpoint: median survival time, higher = longer survival
In short: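 Mice carrying the transplanted tumor received test compound or vehicle. Survival was recorded in each group, and the value is the treated-group measurement divided by that of the vehicle-treated control group.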

[1] = dose: 60.0 mg/kg/injection, schedule: Q01DX005 (ip), vehicle: saline with Tween-80
[2] = dose: 120.0 mg/kg/injection, schedule: Q01DX005 (ip), vehicle: saline with Tween-80
[3] = dose: 240.0 mg/kg/injection, schedule: Q01DX005 (ip), vehicle: saline with Tween-80
[4] = dose: 50.0 mg/kg/injection, schedule: Q01DX009 (ip), vehicle: saline with Tween-80
[5] = dose: 100.0 mg/kg/injection, schedule: Q01DX009 (ip), vehicle: saline with Tween-80
[6] = dose: 200.0 mg/kg/injection, schedule: Q01DX009 (ip), vehicle: saline with Tween-80

With `Nc1ncnc2c1ncn2C(/C=N/Nc1ccccc1)OC(/C=N\Nc1ccccc1)CO` (stereo not drawn) the T/C (dose: 50.0 mg/kg/injection, schedule: Q01DX005 (ip), vehicle: saline with Tween-80) was 106 % of control, the T/C (dose: 100.0 mg/kg/injection, schedule: Q01DX005 (ip), vehicle: saline with Tween-80) was 106 % of control and the T/C (dose: 200.0 mg/kg/injection, schedule: Q01DX005 (ip), vehicle: saline with Tween-80) was 107 % of control.

For `C=C1C(=O)OC2/C=C(CO)/C=C\C3OC3(C)CC(OC(=O)/C(=C/C)CO)C12` (stereo not drawn), the T/C (dose: 12.5 mg/kg/injection, schedule: Q01DX005 (ip), vehicle: Klucel (hydroxypropylcellulose) (HPC)) was 106 % of control and 97 % of control, the T/C (dose: 25.0 mg/kg/injection, schedule: Q01DX005 (ip), vehicle: Klucel (hydroxypropylcellulose) (HPC)) was 99 % of control and 103 % of control and 116 % of control and the T/C (dose: 50.0 mg/kg/injection, schedule: Q01DX005 (ip), vehicle: Klucel (hydroxypropylcellulose) (HPC)) was 109 % of control and 111 % of control.

For `Nc1nc(N)c(N)c(N)n1`, the T/C (dose: 50.0 mg/kg/injection, schedule: Q04DX003 (ip), vehicle: saline with Tween-80) was 98 % of control, the T/C (dose: 100.0 mg/kg/injection, schedule: Q04DX003 (ip), vehicle: saline with Tween-80) was 104 % of control and the T/C (dose: 200.0 mg/kg/injection, schedule: Q04DX003 (ip), vehicle: saline with Tween-80) was 97 % of control. The T/C (dose: 400.0 mg/kg/injection, schedule: Q04DX003 (ip), vehicle: saline with Tween-80) was 96 % of control.

In the case of `Cn1c(N)c(N=O)c(=O)n(C)c1=O`, the T/C (dose: 90.0 mg/kg/injection, schedule: Q01DX009 (ip), vehicle: saline with Tween-80) is reported as 90 % of control, the T/C (dose: 180.0 mg/kg/injection, schedule: Q01DX009 (ip), vehicle: saline with Tween-80) is reported as 95 % of control and the T/C (dose: 360.0 mg/kg/injection, schedule: Q01DX009 (ip), vehicle: saline with Tween-80) is reported as 95 % of control.

With `COCCCn1c(C(Cl)(Cl)Cl)nn2c(=O)c3ccccc3nc2c1=O` the T/C (dose: 6.25 mg/kg/injection, schedule: Q01DX009 (ip), vehicle: saline with Tween-80) was 96 % of control, the T/C (dose: 12.5 mg/kg/injection, schedule: Q01DX009 (ip), vehicle: saline with Tween-80) was 91 % of control and the T/C (dose: 25.0 mg/kg/injection, schedule: Q01DX009 (ip), vehicle: saline with Tween-80) was 100 % of control.

`CN(C)C(=O)c1ccccc1SC(=S)NCc1ccccc1` was tested, and the T/C (dose: 60.0 mg/kg/injection, schedule: Q01DX005 (ip), vehicle: Klucel (hydroxypropylcellulose) (HPC)) was 102 % of control, the T/C (dose: 120.0 mg/kg/injection, schedule: Q01DX005 (ip), vehicle: Klucel (hydroxypropylcellulose) (HPC)) was 102 % of control and the T/C (dose: 240.0 mg/kg/injection, schedule: Q01DX005 (ip), vehicle: Klucel (hydroxypropylcellulose) (HPC)) was 102 % of control.

With `CC(C)COC(=O)C(CC(C)C)NC(=O)C(C)O` (stereo not drawn) the T/C (dose: 50.0 mg/kg/injection, schedule: Q01DX001 (ip), vehicle: suspension in saline) was 103 % of control, the T/C [1] was 97 % of control and the T/C (dose: 100.0 mg/kg/injection, schedule: Q01DX001 (ip), vehicle: suspension in saline) was 92 % of control. The T/C [2] was 101 % of control, the T/C (dose: 200.0 mg/kg/injection, schedule: Q01DX001 (ip), vehicle: suspension in saline) was 103 % of control and the T/C [3] was 100 % of control. For the same compound, the T/C (dose: 400.0 mg/kg/injection, schedule: Q01DX001 (ip), vehicle: suspension in saline) was 104 % of control.

`O=C1/C(=C/c2cccc(O)c2O)SC(=S)N1CCCN1CCOCC1` was tested, and the T/C [4] was 98 % of control, the T/C [5] was 107 % of control and the T/C [6] was 92 % of control.

With `CCCCC(=O)C(=O)c1ccc(O)cc1O` the T/C (dose: 50.0 mg/kg/injection, schedule: Q01DX009 (ip), vehicle: Klucel (hydroxypropylcellulose) (HPC)) was 116 % of control, the T/C (dose: 100.0 mg/kg/injection, schedule: Q01DX009 (ip), vehicle: Klucel (hydroxypropylcellulose) (HPC)) was 114 % of control and the T/C (dose: 200.0 mg/kg/injection, schedule: Q01DX009 (ip), vehicle: Klucel (hydroxypropylcellulose) (HPC)) was 110 % of control.

For `CC(=O)CC(=O)CCCC(=O)O`, the T/C [4] was 96 % of control, the T/C [5] was 99 % of control and the T/C [6] was 104 % of control.

With `C[C@@H]1C[C@H]2CC[C@H](O2)[C@H](C)C(=O)O[C@@H](C)C[C@@H]2CC[C@@H](O2)[C@@H](C)C(=O)O[C@H](C)C[C@H]2CC[C@H](O2)[C@H](C)C(=O)O[C@@H](C)C[C@@H]2CC[C@@H](O2)[C@@H](C)C(=O)O1` the T/C (dose: 132.0 mg/kg/injection, schedule: Q01DX009 (ip), vehicle: saline with Tween-80) was 100 % of control, the T/C [6] was 104 % of control and the T/C (dose: 300.0 mg/kg/injection, schedule: Q01DX009 (ip), vehicle: saline with Tween-80) was 104 % of control.

In the case of `CCOC(=O)CC/C(=C\NC(=O)c1ccccc1)NC(=O)c1ccccc1`, the T/C [1] is reported as 96 % of control, the T/C [2] is reported as 88 % of control and the T/C [3] is reported as 90 % of control.

With `CC(CCl)N(CCCl)Cc1cccc(Nc2ncnc3nc[nH]c23)c1` (stereo not drawn) the T/C (dose: 0.13 mg/kg/injection, schedule: Q01DX009 (ip), vehicle: saline) was 118 % of control, the T/C (dose: 0.15 mg/kg/injection, schedule: Q04DX003 (ip), vehicle: saline) was 104 % of control and the T/C (dose: 0.22 mg/kg/injection, schedule: Q04DX003 (ip), vehicle: saline) was 109 % of control. For the same compound, the T/C (dose: 0.33 mg/kg/injection, schedule: Q04DX003 (ip), vehicle: saline) was 118 % of control, the T/C (dose: 1.3 mg/kg/injection, schedule: Q01DX009 (ip), vehicle: saline sonified) was 154 % of control and the T/C (dose: 2.0 mg/kg/injection, schedule: Q01DX009 (ip), vehicle: saline sonified) was 181 % of control. The T/C (dose: 3.0 mg/kg/injection, schedule: Q01DX009 (ip), vehicle: saline sonified) was 172 % of control.
